Reference: patent EP4417190A1, “CYCLIC PEPTIDES WITH ANTI-AGING EFFICACY” (Lipotrue, S.L., priority 2023, dated 2024)

Key:
Format in all cases: cell-based, human
[1] = test system: ITGA5; test: RT-qPCR expression of aging-related gene ITGA5 in HEKa; details: 0.01 mg/mL, 24 h
Procedure: (§1) Then, cells were lysed, and RNA was extracted (RNeasy mini kit, Qiagen). Purified RNAs were retro-transcribed (High-capacity cDNA reverse transcription kit, Applied Biosystems). RT-qPCR was performed with the panel of TaqMan assay probes (Thermo Fisher Scientific) using StepOne plus Real time PCR instrument. […] The obtained data were analyzed using the ΔΔCt method, which provides the target gene expression values as fold changes in the treated sample compared with an untreated basal sample. Both samples were normalized with the relative expression of the housekeeping gene GAPDH.

[2] = test system: ITGB1; test: RT-qPCR expression of aging-related gene ITGB1 in HEKa; details: 0.01 mg/mL, 24 h
Procedure: as §1

[3] = test system: calreticulin (CALR); test: Calreticulin immunofluorescence quantification in HEKa; details: 0.005 mg/mL, 24 h
Procedure: The effect of the cycled peptide on the expression of calreticulin (CALR) in human epidermal keratinocytes from adult (HEKa) was analyzed through fluorescence microscopy evaluation.
HEKa cells were cultured on coverslips in Dermal Cell Basal Medium (DCBM) at a density of 50.000 cell/well and incubated at 37 °C in a humidified atmosphere with 5% CO2. When cell confluence was around 80%, cells were treated with cycled peptide B at 0.005 mg/mL for 24 h. After treatment, samples were washed twice with PBS, fixed with 4% formaldehyde and permeabilized with Triton X-100 0.2%. Next, samples were blocked for 1 hour with PBS/BSA 5%, in order to avoid nonspecific antibody binding. […]
Images were analyzed using Image J software. Shortly, threshold was adjusted to select CALR staining and mean fluorescent was measured. The number of cells was counted using the DAPI staining. […] Finally, all data was normalized as follows to obtain the % of CALR compared to untreated cells (Basal): % vs Basal = (fluorescence per cell in treated samples)/(fluorescence per cell in untreated samples) × 100 [formula]
Statistical data analysis was performed using Student t-test by comparison of % fluorescence from peptide B treated samples vs. untreated samples, (*, p < 0.05; **, p < 0.01 and ***, p < 0.001).

[4] = test system: Collagen I (COL1); test: Collagen I immunostaining in HDF treated with conditioned media from peptide-treated keratinocytes; details: 4 days of treatment with conditioned medium from peptide-treated keratinocytes (Figure 8)
Procedure: For TGFβ3 gene expression assessment, HEKa cells were seeded in 24-well plate at a density of […] and incubated at 37 °C in a humidified atmosphere with 5% CO2. Next day, cell culture media was replaced by fresh media containing 0.0025 or 0.01 mg/mL of cycled peptide B. In parallel, HDF cells were seeded on culture plates with or without coverslips (for immunofluorescence or qPCR, respectively) and incubated for 24 h.
Conditioned media from HEKa cells after 48 hours of treatment was then transferred to HDF culture plates. Cells were maintained in culture for additional 24h (for qPCR) or for 4 days (for collagen I immunostaining).
For the evaluation of collagen I (COLI) synthesis by immunostaining, HDF cells treated with HEKa conditioned media (as explained above) were washed twice with PBS, fixed with 4% formaldehyde and permeabilized with Triton X-100 0.2%. Next, samples were blocked for 1 hour with PBS/BSA 5%, in order to avoid nonspecific antibody binding. For collagen I staining, samples were incubated for 2 hours with Monoclonal Anti-Collagen, Type I antibody diluted 1:100 in PBS/BSA 1%, at room temperature. […] Images were analyzed using Image J software as mentioned above.

[5] = test system: COL3A1, COL5A1, COL6A1, COL7A1, COL1A1 and COL4A1; test: qPCR expression of collagen genes in HDFa; details: 6 hours, 0.001 mg/mL (COL3A1, COL5A1, COL6A1, COL7A1) or 0.1 mg/mL (COL1A1, COL4A1), compared with linear form (Figure 6A, 6B)
Procedure: HDFa cells were seeded in duplicate (n=2) in 12-well plates at a concentration of 200.000 cells/well in 106 Medium supplemented with 2% LSGS. Then, cells were incubated at 37 °C in a humidified atmosphere with 5% CO2. Next, cells were treated with cycled peptide B at different non-toxic concentrations for 6 or 24 hours. Untreated cells were used as basal control. Cells were then lysed, and replicates were pooled together for RNA extraction using Qiagen RNeasy Mini kit following manufacturer's instructions. Purified RNAs was then quantified by nanodrop, adjusted in concentration and processed for retrotranscription to cDNA using a commercially available kit (High-Capacity cDNA Reverse Transcription kit - Thermofisher Scientific, USA). Resulting cDNA was used to perform a RTqPCR using Taqman technology, and a panel of probes designed to target different type of collagens and their respective matrix metalloproteinases.
The expression of collagen genes in HDFa cells was measured by qPCR.

Fold change vs. Basal [1]: 1.84 | Fold change vs. Basal [2]: 1.65
SMILES: CC(C)C[C@@H]1NC(=O)[C@H](C)NC(=O)[C@H](Cc2c[nH]cn2)NC(=O)[C@H](Cc2c[nH]c3ccccc23)NC(=O)[C@H](Cc2ccccc2)NC(=O)[C@H](CCCNC(=N)N)NC1=O [Peptide B, cyclo-Phe-Trp- His- Ala-Leu-Arg]
Mean normalized expression ([1]; normalized to GAPDH): 1.15E-01 | Mean normalized expression ([2]; normalized to GAPDH): 7.16E-01 | % Mean (CALR fluorescence per cell, % vs Basal) [3]: 179.45% | increased CALR levels when compared with untreated cells [3]: up to 79% | Collagen I (COL1) levels [4]: significantly increased | expression of collagen genes [5]: improves the induction of collagen-related genes
